In patent US12662674B2, “RNA nanoparticle for liver cancer treatment” (OHIO STATE INNOVATION FOUNDATION, priority 2019, dated 2026):

Tested on: HepG2 cells
Experiment: HSA synergy modeling of cell viability
Settings: HSA model, Combenefit; FIG. 17C: 6WJ/HTL/miR122 and 6WJ/HTL/PTX nanoparticles
Description: To study the synergy between miR122 and PTX in cytotoxicity induction, an MTT cell viability assay was first performed. […] Cell viability was used as an indicator to quantify the correlation of synergy between miR122 and PTX using Highest Single Agent (HSA) synergy modeling. The data was processed and quantified using Combenefit software to obtain the HSA synergy score between miR122 and PTX (FIG. 17C). […] The number represented the co-efficiency of synergy.
Cell viability was studied following MTT protocol in cytotoxicity assay. The result was presented by Prism 8.0 (Graph Pad). The viability result was entered into HSA synergy modeling by Combenefit and plotted by Prism 8.0.

CC(=O)O[C@H]1C(=O)[C@@]2(C)[C@H]([C@H](OC(=O)c3ccccc3)[C@]3(O)C[C@H](OC(=O)[C@H](O)[C@@H](NC(=O)c4ccccc4)c4ccccc4)C(C)=C1C3(C)C)[C@]1(OC(C)=O)CO[C@@H]1C[C@@H]2O [PTX, Paclitaxel] was tested. Which “concentration of highest synergy in cytotoxic induction” value did it give?
Its value is 3.2 µM.
